Measured values taken from patent US12263163B2 (Kronos Bio, Inc., priority 2013, dated 2025).

These compounds were tested on human hepatocytes (assay: Human Hepatocyte Stability Assay (predicted hepatocyte clearance)). Conditions: comparison table with known Syk inhibitors, head prints (units).
Format: in vitro ADME
Description: The human […] stability of the compounds as predicted hepatocyte clearance in L/hr/kg was assessed. Compounds to be tested were diluted to 200 μM (4 μl of 10 mM DMSO stock into 196 μl ACN:H2O (50:50). Propranolol was used as a positive control, and buffer only without hepatocytes as 0% control. These were further diluted 4 μl with 891 μl KHB buffer (InVitroGRO catalog number Z99074) to provide 2× dosing solution. To each well of 24 well plate, 250 μl of the 2× dosing solution was added to each well with 250 μl of hepatocytes cells (1×10^6 viable cells/ml per well) or KHB for control samples to achieve a final compound concentration of 1 μM during incubation. The final solvent concentration was 0.01% DMSO and 0.25% ACN. The culture plate was placed on a rocker and incubated at 37° C., 5% CO2. Samples were collected at time 0, 1, 3, and 6 hours. The loss of parent compound was determined using LC-MS methods against a standard curve.

| Structure (SMILES) | Hheps CL |
| --- | --- |
| COc1ccc(Nc2nc(-c3ccc(N)nc3)cn3ccnc23)cc1OC [6-(6-aminopyridin-3-yl)-N-(3,4-dimethoxyphenyl)imidazo[1,2-a]pyrazin-8-amine, reference compound] | 15 mL/min/kg |
| Nc1cncc(-c2cn3ccnc3c(Nc3ccc(N4CCN(CC(CO)CO)CC4)cc3)n2)n1 [Ex.-6, 2-((4-(4-((6-(6-aminopyrazin-2-yl)imidazo[1,2-a]pyrazin-8-yl)amino)phenyl)piperazin-1-yl)methyl)propane-1,3-diol] | 1.3 mL/min/kg |
| Cc1ncc(-c2cn3ccnc3c(Nc3ccc(N4CCN(C5COC5)CC4)cc3)n2)nc1N [Ex.-1, 6-(6-amino-5-methylpyrazin-2-yl)-N-(4-(4-(oxetan-3-yl)piperazin-1-yl)phenyl)imidazo[1,2-a]pyrazin-8-amine] | 2 mL/min/kg |
| Nc1cncc(-c2cn3ccnc3c(Nc3ccc(N4CCOCC4)cc3)n2)c1 [6-(5-aminopyridin-3-yl)-N-(4-morpholinophenyl)imidazo[1,2-a]pyrazin-8-amine, reference compound] | 11.3 mL/min/kg |
| Cc1c(-c2cncc(N)n2)nc(Nc2ccc(N3CCN(C4COC4)CC3)cc2)c2nccn12 [Ex.-4, 6-(6-aminopyrazin-2-yl)-5-methyl-N-(4-(4-(oxetan-3-yl)piperazin-1-yl)phenyl)imidazo[1,2-a]pyrazin-8-amine] | 1.3 mL/min/kg |
| COc1ccc(Nc2nc(-c3cccc(N)c3)cn3ccnc23)cc1OC [6-(3-aminophenyl)-N-(3,4-dimethoxyphenyl)imidazo[1,2-a]pyrazin-8-amine, reference compound] | 4 mL/min/kg |
| Nc1cncc(-c2cn3ccnc3c(Nc3ccc(N4CCN(C5COC5)CC4)c(OCCO)c3)n2)n1 [Ex.-5, 2-(5-((6-(6-aminopyrazin-2-yl)imidazo[1,2-a]pyrazin-8-yl)amino)-2-(4-(oxetan-3-yl)piperazin-1-yl)phenoxy)ethanol] | 1.2 mL/min/kg |
| Cc1ncc(-c2cn3ccnc3c(Nc3ccc(N4CCOCC4)cc3)n2)cc1N [6-(5-amino-6-methylpyridin-3-yl)-N-(4-morpholinophenyl)imidazo[1,2-a]pyrazin-8-amine, reference compound] | 13.3 mL/min/kg |
| Nc1cncc(-c2cn3ccnc3c(Nc3ccc(N4CCO[C@@H](CO)C4)cc3)n2)n1 [Ex.-3, (R)-(4-(4-((6-(6-aminopyrazin-2-yl)imidazo[1,2-a]pyrazin-8-yl)amino)phenyl)morpholin-2-yl)methanol] | 1.5 mL/min/kg |
| Nc1cncc(-c2cn3ccnc3c(Nc3ccc(N4CCN(C5COC5)CC4)cc3)n2)n1 [Ex.-2, 6-(6-aminopyrazin-2-yl)-N-(4-(4-(oxetan-3-yl)piperazin-1-yl)phenyl)imidazo[1,2-a]pyrazin-8-amine] | 0.917 mL/min/kg |
| Cc1ncc(-c2cn3ccnc3c(Nc3ccc(N4CCN(C5COC5)CC4)c(OCCO)c3)n2)nc1N [Ex.-7, 2-(5-((6-(6-amino-5-methylpyrazin-2-yl)imidazo[1,2-a]pyrazin-8-yl)amino)-2-(4-(oxetan-3-yl)piperazin-1-yl)phenoxy)ethanol] | 0.83 mL/min/kg |
